Test results as given in US11013722B2, “Therapeutic agent for dyslipidemia” (KOWA COMPANY, LTD., priority 2012, dated 2021).

What was measured:
[1] = test system: High-Cholesterol Diet-Fed Rats; experiment: Example 2: combined effect of compound A and ezetimibe, plasma TC and lipoprotein cholesterol; format: in vivo, SD rats
Description: The synergistic effect was determined by using Burgi's formula (in a case where a level lower than that in the control group is indicated in a drug administration group, that is, when the evaluation of an agent to the TC, VLDL-C, or LDL-C is performed, if the relative level in the combined group is smaller than the value of the product of the relative level of single agent A and the relative level of single agent B, the synergistic effect exists. In a case where a level higher than that in the control group is indicated in a drug administration group, that is, when the evaluation of an agent to the HDL-C is performed, if the relative level in the combined group is larger than the value of the product of the relative level of single agent A and the relative level of single agent B, the synergistic effect exists).
(§1) Group 2: Compound A 0.1 mg/kg
Group 3: Ezetimibe 0.01 mg/kg […]
Group 5: Ezetimibe 0.1 mg/kg […]
(§2) The results were shown as the mean±standard deviation.

[2] = test system: High-Cholesterol Diet-Fed Rats; experiment: Example 1: combined effect of compound A and ezetimibe, plasma HDL-C; format: in vivo, SD rats; settings: for HDL-C Ave.: plasma, oral once a day, one week; for HDL-C Rate of Change: vs control
Description: The synergistic effect was determined by using Burgi's formula (if the relative level in the combined group is larger than the value of the product of the relative level of single agent A and the relative level of single agent B, the synergistic effect is positive).
as §1
Group 3: Ezetimibe 0.003 mg/kg
Group 4: Compound A 0.1 mg/kg and ezetimibe 0.003 mg/kg
as §2

| Compound | HDL-C Relative Level (to Control) ([1]; Compound A 0.1 mg/kg alone) | LDL-C Relative Level (to Control) ([1]; Compound A 0.1 mg/kg alone) | TC Relative Level (to Control) ([1]; Compound A 0.1 mg/kg alone) | VLDL-C Relative Level (to Control) ([1]; Compound A 0.1 mg/kg alone) | Effect on HDL-C level ([2]; Compound A 0.1 mg/kg alone) | HDL-C relative level to the control group ([2]; Compound A 0.1 mg/kg alone) | HDL-C Ave. ([2]; Compound A 0.1 mg/kg alone) | HDL-C Rate of Change ([2]; Compound A 0.1 mg/kg alone) [%] | HDL-C Relative Level (to Control) ([1]; Ezetimibe 0.01 mg/kg alone) | LDL-C Relative Level (to Control) ([1]; Ezetimibe 0.01 mg/kg alone) | TC Relative Level (to Control) ([1]; Ezetimibe 0.01 mg/kg alone) | VLDL-C Relative Level (to Control) ([1]; Ezetimibe 0.01 mg/kg alone) | HDL-C Relative Level (to Control) ([1]; Ezetimibe 0.1 mg/kg alone) | LDL-C Relative Level (to Control) ([1]; Ezetimibe 0.1 mg/kg alone) | TC Relative Level (to Control) ([1]; Ezetimibe 0.1 mg/kg alone) | VLDL-C Relative Level (to Control) ([1]; Ezetimibe 0.1 mg/kg alone) | Effect on HDL-C level ([2]; Ezetimibe 0.003 mg/kg alone) | HDL-C relative level to the control group ([2]; Ezetimibe 0.003 mg/kg alone) | HDL-C Ave. ([2]; Ezetimibe 0.003 mg/kg alone) | HDL-C Rate of Change ([2]; Ezetimibe 0.003 mg/kg alone) [%] |
| --- | --- | --- | --- | --- | --- | --- | --- | --- | --- | --- | --- | --- | --- | --- | --- | --- | --- | --- | --- | --- |
| CC[C@@H](Oc1cccc(CN(CCCOc2ccc(OC)cc2)c2nc3ccccc3o2)c1)C(=O)O [Compound A, (R)-2-[3-[[N-(benzoxazol-2-yl)-N-3-(4-methoxyphenoxy)propyl]aminomethyl]phenoxy]butyric acid] | 1.021 | 0.971 | 0.956 | 0.827 | apparent effects were not recognized | 1.010 | 24.3 | 1.0 |  |  |  |  |  |  |  |  |  |  |  |  |
| O=C1[C@H](CC[C@H](O)c2ccc(F)cc2)[C@@H](c2ccc(O)cc2)N1c1ccc(F)cc1 [Ezetimibe, (3R,4S)-1-(4-fluorophenyl)-3-{(3S)-3-(4-fluorophenyl)-3-hydroxypropyl}-4-(4-hydroxyphenyl)azetidin-2-one] |  |  |  |  |  |  |  |  | 0.910 | 0.955 | 0.898 | 0.719 | 1.100 | 0.720 | 0.555 | 0.262 | apparent effects were not recognized | 1.022 | 24.6 | 2.2 |
